Columns and labels:
p-ERK2 = test: Western blot in HPAF II cells with MEK/ERK modulators and AST: p-ERK2; type: cell-based
Excerpt: The experiment used three types of MEK/ERK modulators, including two inhibitors and one activator. The inhibitors were PD98059, a MEK1/2 specific inhibitor, and Suramin, a broad-spectrum growth factor receptor inhibitor; while the activator of the ERK signaling pathway is Phorbol Ester (TPA). The chemical structures of inhibitor PD98059, inhibitor Suramin, and activator TPA are as follows: [drawing 48] [drawing 49] [drawing 50]
The experiment was assigned to inhibitor group and activator group, both of which were performed by Western Blot and cell apoptosis experiments.
In the Western blot experiment, HPAF II cell suspensions were treated with each group of compounds, and cultured overnight in a 37 °C, 5% CO2 incubator, and the cell protein lysate was collected for Western blot (WB) detection.
(§1) The specific compounds to be treated in the Western blot inhibitor group and activator group are as follows: Inhibitor group: 1% DMSO treatment group, 1 µM AST treatment group, 30 µM PD98059 treatment group, 1 mM Suramin treatment group, 1 µM AST + 30 µM PD98059 treatment group, and 1 µM AST + 1 mM Suramin treatment group; and Activator group: 1% DMSO treatment group, 0.5 µM AST treatment group, 25 nM TPA treatment group, and 0.5 µM AST + 25 nM TPA treatment group.

HPAF II cells = test: Cell apoptosis detection (Caspase Glo 3/7) in HPAF II cells with MEK/ERK modulators and AST; type: cell-based
Procedure: Additionally, cell apoptosis detection was performed as follows: • 1) Caspase Glo® 3/7 reagents were prepared and equilibrated to room temperature. The buffer of the reagents and the substrate were mixed homogeneously at 1:1 to prepare Caspase Glo® 3/7 reagents. The configured reagents can be stored at 4 °C for 3 days. • 2) 100 µL Caspase Glo® 3/7 reagents were added to each well of culture medium containing 100 µL blank (wells without cells), negative control cells, or treated cells. Due to the sensitivity of the analysis, be careful not to make the tip of the pipette to touch the holes that contained samples to avoid cross contamination. The plates were covered with a plate sealant or lid. • 3) The reagent solutions were mixed gently using a shaker at a speed of 300-500 rpm for 30 seconds, and left in the dark at room temperature for 1 hour. • 4) The luminescence of each sample was measured in a plate reading photometer. And the luminescence value of each group was calculated, and analyze by making a column diagram.
as §1, with “apoptosis” for “Western blot”, “Inhibition” for “Inhibitor”, “1” for “0.5”, “50” for “25”

NRF2 = details: HPAF II cells; increasing SFN concentration 0.875-7 µM, overnight
Procedure: (§2) The solution of SFN compound (Sulforaphane, NRF2 activator) was added to HPAF II cell suspension, cultured overnight in a 37 °C, 5% CO2 incubator, and the cell protein lysate was collected for Western blot (WB) detection.
(§3) The experiment was assigned to 5 groups: 0.5% DMSO, 0.875 µM SFN, 1.75 µM SFN, 3.5 µM SFN, and 7 µM SFN.
(§4) HPAF II cells were treated with different concentrations of NRF2 activator SFN, and then the expression of NRF2 and AKR1C3 was detected by Western blot.

AKR1C3 = details: HPAF II cells; increasing SFN concentration 0.875-7 µM, overnight
Procedure: as §2, §3, §4

COc1cccc(-c2cc(=O)c3ccccc3o2)c1N [PD98059, reference compound]
expression level of p-ERK2 (p-ERK2; 30 µM PD98059 alone): slightly reduced | cell apoptosis (Caspase 3/7 luminescence) (HPAF II cells; 30 µM PD98059 monotherapy): almost no effect on cell apoptosis

C[S+]([O-])CCCCN=C=S (stereo not drawn) [SFN, Sulforaphane]
expressions of NRF2 (NRF2): significantly increased | expressions of AKR1C3 (AKR1C3): also increased simultaneously

Cc1ccc(C(=O)Nc2ccc(S(=O)(=O)O)c3cc(S(=O)(=O)O)cc(S(=O)(=O)O)c23)cc1NC(=O)c1cccc(NC(=O)Nc2cccc(C(=O)Nc3cc(C(=O)Nc4ccc(S(=O)(=O)O)c5cc(S(=O)(=O)O)cc(S(=O)(=O)O)c45)ccc3C)c2)c1 [suramin, Suramin, reference compound]
expression level of p-ERK2 (p-ERK2; 1 mM Suramin alone): slightly reduced | cell apoptosis (Caspase 3/7 luminescence) (HPAF II cells; 1 mM Suramin monotherapy): almost no effect on cell apoptosis
